Reference: patent US5880099A, “Inositol polyphosphates and methods of using same” (The Regents of the University of California, priority 1997, dated 1999)
Entries after “also recorded” stand apart in the source; their conditions may differ.

Experiments:
[1] = system: colonic epithelial T84 cells (calcium-mediated chloride ion secretion); assay: Inhibition of calcium-mediated chloride ion secretion (Table I summary); type: cell-based, human; details: pathway: Ins (3,4,5,6)P4
Excerpt: The invention provides compounds that are agonists or antagonists of inositol polyphosphates. Inositol polyphosphate derivatives can function as inositol polyphosphate agonists and antagonists. The effects of compounds of the invention on Ins(3,4,5,6)P4 - and PtdInsP3 -mediated inhibition of calcium-mediated chloride ion secretion are described in the Examples and summarized in Table I.
Enantiomerically pure 1,2-Bt2 -Ins(3,4,5,6)P4 /AM was synthesized to determine if 1,2-Bt2 -Ins(3,4,5,6)P4 /AM mediates the uncoupling of chloride ion secretion from intracellular calcium concentrations. T84 cells (passages 18-48) were maintained as described previously (Weymer, et al., J. Clin. Invest. 76:1828 (1985)), which is incorporated herein by reference. After 7-10 days of incubation on SNAP-WELLS (Corning Costar; Cambridge, Mass.), monolayers had formed tight junctions. Cell monolayers were preincubated with 100, 200 or 400 μM Bt2 -Ins(3,4,5,6)P4 /AM for 30 min prior to mounting. After an additional 30 min, 0.1 mM histamine was added and chloride ion secretion was monitored. Chloride ion secretion was measured as short circuit current (Isc) across T84 monolayers grown to confluence and mounted in Ussing chambers equipped with voltage clamps (Physiologic Instruments; San Diego, Calif.). Data was acquired and analyzed using "Acquire and Analyze" software (Physiologic Instruments).

[2] = system: T84 colonic epithelial cells (carbachol-mediated inhibition of chloride ion secretion); assay: Reversal of carbachol-mediated inhibition of thapsigargin-stimulated chloride ion secretion in T84 cells; type: cell-based, human; details: carbachol 10^-4 M, thapsigargin 1 μM
Protocol: T84 colonic epithelial cells were treated with D,L-1,2-cyclohexylidene-Ins(3,4,5,6)P4 /AM, 1-Bu-2-Bt-Ins(3,4,5,6)P4 /AM, Bu2 -Ins(3,4,5,6)P4 /AM, 3-Bt-2-Bu-Ins(1,4,5,6)P4 /AM, Bu2 -Ins(1,4,5,6)P4 /AM, 1-Bt-2-Bu-Ins(3,4,5,6)P4 /AM or 3-Bu-2-Bt-Ins(1,4,5,6)P4 /AM and the short circuit current was measured.
One set of cells was preincubated for 30 min with an inositol polyphosphate derivative. The other two sets of cells were preincubated with vehicle, alone. Measurement of Isc was initiated at time 0. At 5 min, carbachol (10^-4 M) was added to one set of cells preincubated with vehicle alone (designated "Carbachol" in FIG. 5) and to the set of cells preincubated with inositol polyphosphate derivatives (designated "Carbachol+D,L-1,2-Cyclohexylidene-Ins(3,4,5,6)P4 /AM" in FIG. 5A). At 30 min, 1 μM thapsigargin was added. Data were collected for n=4 to 6 experiments.

[3] = system: T84 cells (Ins(3,4,5,6)P4 inhibition of histamine-stimulated chloride ion secretion); assay: Reversal of Bt2 -Ins(3,4,5,6)P4 /AM inhibition of histamine-stimulated chloride ion secretion in T84 cells; type: cell-based, human; details: T84 cells, histamine-stimulated
Protocol: Initial studies were directed towards understanding structural determinants of Ins(3,4,5,6)P4 responsible for the inhibitory effect on calcium-mediated chloride ion secretion. A series of cell permeable inositol polyphosphate derivatives were synthesized. These derivatives contained either one or two non-hydrolyzable chemical groups on the 1, 2 or 3 position. T84 monolayers were preincubated for 30 minutes with 200 μM of 2-Bt-1-Me-Ins(3,4,5,6)P4 /AM, Me2 -Ins(3,4,5,6)P4 /AM, Me2 -Ins(1,4,5,6)P4 /AM or 2-Bt-3-Me-Ins(1,4,5,6)P4 /AM.
Following the incubation, cells were mounted in Ussing chambers. Calcium-mediated chloride ion secretion was stimulated with histamine (10^-4 M). Control values were the response to histamine in coincubated monolayers. Data are represented as mean peak ΔIsc ±SEM, expressed as % control for 8 to 10 experiments. Significant differences were identified using the Student's two-tailed t test.
T84 cells were preincubated with cell permeant inositol polyphosphates as described above to determine if any of the inositol polyphosphate derivatives function as antagonists of Ins(3,4,5,6)P4 inhibition of calcium-mediated chloride ion secretion. Following histamine stimulation, short circuit current was measured. […] The % control shown in FIG. 3 represents ΔIsc over peak Isc in control monolayers stimulated with histamine. However, […]

[4] = system: phosphatidylinositol 3-kinase (PI 3-kinase); details: Uribe et al. 1996b; cited from earlier work
[5] = system: T84 cells (EGF induced inhibition of chloride ion secretion); details: cited from earlier work
Ins(3,4,5,6)P4 = details: background; cited from earlier work
[6] = system: T84 cells (EGF induced inhibition of chloride ion secretion); assay: EGF induced inhibition of carbachol-stimulated chloride ion secretion in T84 cells and its reversal; type: cell-based, human; details: EGF 16.3 nM, carbachol 100 μM
Protocol: After an additional 15 min incubation, 100 μM carbachol was added to acutely elevate intracellular calcium concentrations. Controls also were stimulated with carbachol but were not pretreated with EGF. Data are the means of duplicate measurements from a representative experiment (total of three experiments).

Compound | Mechanism and Inositol Polyphosphate Pathway Affected [1] | reversal of carbachol-mediated inhibition of chloride ion secretion (in words) [2] | reversal of the inhibitory effect of Bt2 -Ins(3,4,5,6)P4 /AM / Ins(3,4,5,6)P4-mediated inhibition (in words) [3] | effect on formation of PI 3-kinase products (in words) [4] | reversal of EGF induced inhibition of chloride ion secretion (in words) ([5]; Uribe et al. 1996b) | increase in Ins(3,4,5,6)P4 levels (Ins(3,4,5,6)P4) | effect on calcium-mediated chloride ion secretion induced by carbachol and thapsigargin (in words) ([5]; Uribe et al. 1996) | effect on carbachol-stimulated chloride ion secretion / EGF induced inhibition (in words) [6]
CC(=O)OCOP(=O)(OCOC(C)=O)O[C@H]1[C@H](OP(=O)(OCOC(C)=O)OCOC(C)=O)[C@@H](OP(=O)(OCOC(C)=O)OCOC(C)=O)[C@H]2OC3(CCCCC3)O[C@H]2[C@@H]1OP(=O)(OCOC(C)=O)OCOC(C)=O (relative stereo) [rac-1,2-Di-O-cycloheylidene-myo-inositol 3,4,5,6-tetrakisphosphate octakis(acetoxymethyl)ester] | Antagonist of | enhanced chloride ion secretion; also recorded: reversed the inhibitory effect of carbachol on calcium-mediated chloride ion secretion; also recorded: reversed the carbachol-mediated inhibition of chloride ion secretion stimulated by thapsigargin |  |  |  |  |  | 
CCCCO[C@@H]1[C@H](OC(=O)CCC)[C@H](OP(=O)(OCOC(C)=O)OCOC(C)=O)[C@@H](OP(=O)(OCOC(C)=O)OCOC(C)=O)[C@H](OP(=O)(OCOC(C)=O)OCOC(C)=O)[C@H]1OP(=O)(OCOC(C)=O)OCOC(C)=O [1-Bu-2-Bt-Ins(3,4,5,6)P4 /AM, D-1-O-Butyl-2-O-butyryl-myo-inositol 3,4,5,6-tetrakisphosphate octakis(acetoxymethyl)ester] | Antagonist of | enhanced chloride ion secretion; also recorded: reversed the carbachol-mediated inhibition of chloride ion secretion stimulated by thapsigargin | reversed Ins(3,4,5,6)P4 -mediated inhibition of chloride ion secretion |  |  |  |  | 
CCCCO[C@@H]1[C@H](OCCCC)[C@H](OP(=O)(OCOC(C)=O)OCOC(C)=O)[C@@H](OP(=O)(OCOC(C)=O)OCOC(C)=O)[C@H](OP(=O)(OCOC(C)=O)OCOC(C)=O)[C@H]1OP(=O)(OCOC(C)=O)OCOC(C)=O [Bu2 -Ins(3,4,5,6)P4 /AM, D-1,2-Di-O-butyl-myo-inositol 3,4,5,6-tetrakisphosphate octakis(acetozymethyl)ester] | Antagonist of | enhanced chloride ion secretion; also recorded: reversed the carbachol-mediated inhibition of chloride ion secretion stimulated by thapsigargin | reversed Ins(3,4,5,6)P4 -mediated inhibition of chloride ion secretion |  |  |  |  | 
COC[C@H]1OC(=O)c2coc3c2[C@@]1(C)C1=C(C3=O)[C@@H]2CCC(=O)[C@@]2(C)C[C@H]1OC(C)=O [Wortmannin, reference compound] |  |  |  | blocked formation of PtdInsP3 and PtdInsP2 | reversed the EGF induced inhibition of chloride ion secretion |  |  | 
EGF: epidermal growth factor (EGF) |  |  |  | stimulated an increase in levels of the PI 3-kinase products |  | 1.7 -fold | inhibits calcium-mediated chloride ion secretion | decreased chloride ion secretion; also recorded: inhibited carbachol stimulated chloride ion secretion
